Experimental data taken from paper PMC9705314, “Characterization of a new potent and long-lasting single chain peptide agonist of RXFP1 in cells and in vivo translational models” (Scientific Reports, 2022).
*1 amine or outer side, *2 acyl side, *3 side chain or, on linkers, in order; H or OH if unused. Where a SMILES comes first, the peptide text is derived from it. Side-chain parts run from the residue outwards. [ ]: non-standard residue; d: D form. The star is where a group is joined. γGlu = O=C(O)[C@H](CCC(=O)[*:2])N[*:1]; Stearoyl = CCCCCCCCCCCCCCCCCC(=O)*; Nle = CCCC[C@H](N)C(=O)O; AEEA = NCCOCCOCC(=O)O; Aib = CC(C)(N)C(=O)O

How the values were obtained:
rat RXFP1 = target: T1, rat RXFP1 (Rattus norvegicus, UniProt Q6R6I6); experiment: cAMP HTRF assay in HEK_ratRXFP1 cells; assay type: cell-based
T1 construct: expressed in transfected cells
T1 sequence (Q6R6I6 1-758): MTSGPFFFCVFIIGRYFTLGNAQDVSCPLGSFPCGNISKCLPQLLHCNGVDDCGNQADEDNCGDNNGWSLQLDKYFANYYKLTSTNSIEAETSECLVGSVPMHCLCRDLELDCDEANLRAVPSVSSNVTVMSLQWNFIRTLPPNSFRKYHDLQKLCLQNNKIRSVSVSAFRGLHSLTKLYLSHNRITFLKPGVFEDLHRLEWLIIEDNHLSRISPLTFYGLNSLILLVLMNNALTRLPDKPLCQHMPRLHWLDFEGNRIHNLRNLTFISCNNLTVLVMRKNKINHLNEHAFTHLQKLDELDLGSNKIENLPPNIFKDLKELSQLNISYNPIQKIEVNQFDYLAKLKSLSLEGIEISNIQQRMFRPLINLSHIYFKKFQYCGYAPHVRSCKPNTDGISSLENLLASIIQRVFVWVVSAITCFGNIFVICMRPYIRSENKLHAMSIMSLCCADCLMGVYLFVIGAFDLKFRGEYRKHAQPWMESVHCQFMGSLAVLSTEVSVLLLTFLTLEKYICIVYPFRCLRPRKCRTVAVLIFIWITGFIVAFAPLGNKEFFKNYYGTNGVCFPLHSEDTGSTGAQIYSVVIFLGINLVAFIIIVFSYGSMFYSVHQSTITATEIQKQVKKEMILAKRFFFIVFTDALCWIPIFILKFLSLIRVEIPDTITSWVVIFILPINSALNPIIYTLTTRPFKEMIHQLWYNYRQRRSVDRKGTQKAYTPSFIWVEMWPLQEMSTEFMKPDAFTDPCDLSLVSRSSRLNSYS

RXFP1 [1] = target: T2, RXFP1 (Homo sapiens, UniProt Q9HBX9); experiment: cAMP HTRF assay in EA.hy926_hRXFP1 cells; assay type: cell-based; parameters: expressed in transfected cells; host or cells: EA.hy926 (ATCC CRL-2922), lentiviral transduction, puromycin selection
T2 sequence (Q9HBX9 1-757): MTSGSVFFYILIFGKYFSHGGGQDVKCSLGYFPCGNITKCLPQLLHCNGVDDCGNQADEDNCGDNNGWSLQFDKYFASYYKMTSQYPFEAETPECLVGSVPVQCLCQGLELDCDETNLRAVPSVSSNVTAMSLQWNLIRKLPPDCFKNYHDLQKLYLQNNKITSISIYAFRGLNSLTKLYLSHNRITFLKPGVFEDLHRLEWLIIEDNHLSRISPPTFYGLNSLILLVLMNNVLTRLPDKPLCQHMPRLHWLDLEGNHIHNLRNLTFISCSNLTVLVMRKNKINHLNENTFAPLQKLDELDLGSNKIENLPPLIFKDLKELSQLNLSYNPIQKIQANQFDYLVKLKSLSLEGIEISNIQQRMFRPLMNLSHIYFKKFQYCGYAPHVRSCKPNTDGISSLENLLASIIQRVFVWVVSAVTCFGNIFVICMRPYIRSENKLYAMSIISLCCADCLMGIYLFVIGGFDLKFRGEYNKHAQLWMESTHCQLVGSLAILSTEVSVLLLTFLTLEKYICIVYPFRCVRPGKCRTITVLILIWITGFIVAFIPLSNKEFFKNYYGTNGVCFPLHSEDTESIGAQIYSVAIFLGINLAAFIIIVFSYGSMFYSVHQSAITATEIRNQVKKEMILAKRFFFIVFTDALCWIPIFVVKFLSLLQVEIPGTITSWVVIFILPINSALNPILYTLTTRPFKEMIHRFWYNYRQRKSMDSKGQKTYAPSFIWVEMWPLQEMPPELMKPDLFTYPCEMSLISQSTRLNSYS
Experimental: EA.hy926 or EA.hy926_RXFP1 were grown in complete growth medium (DMEM + 10% Fetal Calf serum + 1% Penicillin/Streptomycin + puromycin 0.5 µg/mL) at 37 °C and 5% CO2 in a humidified incubator. When cells reached 80–90% confluency, cells were detached from plastic using Trypsin–EDTA and were plated in 96 or 384-well plates according to the test.
(§1) Cells were plated in low-volume 384-well plates at a density of 4000 cells/well for EA.hy926_RXFP1 cells or 8000 cells/well for OVCAR5 cells in a final volume of 5 µL. The plates were briefly centrifuged at 800 rpm to allow the cell suspension to move to the bottom of the wells and then incubated for 24 h at 37 °C in 5% CO2. 5µL of the diluted compounds were then transferred in 384-well plate containing 5µL of cells in test medium. The assay plates were incubated for 30 min at 37 °C under 5% CO2. After 30 min the reaction was stopped by addition of HTRF revelation reagents with a multidrop dispenser. […]
(§2) After overnight incubation at room temperature, HTRF signal was read at 620 and 665 nm on Phera Star (BMG LAbtech) plate reader. The HTRF signal was calculated as follows: ratio HTRF = [(signal 665 nm)/(signal 620 nm)] × 10^4. […]
(§3) Relative EC50s (EC50rel) were determined with SAS procedure NLIN in SAS system release 9.4 under Unix via Biost@t-SPEED-LTS v2.4 internal software using the 4-parameter logistic model[47]. […]

RXFP1 [2] = target: T2, RXFP1; experiment: cAMP HTRF assay in OVCAR5 cells (endogenous RXFP1); assay type: cell-based; parameters: they express significant endogenous levels of RXFP1 (determined by RT-PCR); endogenous in cells; host or cells: OVCAR5 (from NIH, NCI-60 panel)
Experimental: OVCAR5 cells were grown in complete medium (RPMI 1640 + 10% Fetal Calf serum + 1% Penicillin/Streptomycin) at 37 °C and 5% CO2 in a humidified incubator. OVCAR5 cells were detached with accutase for 5 min and were plated in 384-well plates at a density of 8000 cells/well.
as §1, §2, §3

RXFP1 [3] = target: T3, RXFP1 (Rattus norvegicus, UniProt Q6R6I6); experiment: Telemetry (heart rate) in conscious SD rats; assay type: in vivo; conditions: conscious telemetered SD rats, single iv relaxin 1, 3 and 10 µg/kg, n = 5/group
T3 construct: measured in conscious telemetered SD rats; tissue Charles River Laboratories; host or cells: whole animal, male Sprague Dawley rats (heart; renal vasculature)
T3 sequence (Q6R6I6 1-758): T1 sequence (Q6R6I6 1-758)

Emax (rat RXFP1; read-out: Emax (%) ± SEM cAMP) | Emax (RXFP1 [1]; read-out: Emax (%) ± SEM cAMP) | Emax (RXFP1 [2]; OVCAR-5, read-out: Emax (%) ± SEM cAMP) | Emax (%) ± SEM cAMP (rat RXFP1; HEK_ratRXFP1 cells, % of 100 nM relaxin response, n = 6) | EC50 (rat RXFP1; HEK_ratRXFP1 cells, geometric mean of relative EC50 with 95% CI, n = 6) | Emax (%) ± SEM cAMP (RXFP1 [1]; EA.hy926_hRXFP1 cells, % of 100 nM relaxin response, n = 5) | Emax (%) ± SEM cAMP (RXFP1 [2]; OVCAR5 cells, % of 100 nM relaxin response, n = 6) | Compound | duration of the heart rate effect (RXFP1 [3])
68.5 ± 2.8% | 93.7 ± 1.1% | 84.1 ± 1.1% | – | – | – | – | CCCCCCCCCCCCCCCCCC(=O)N[C@@H](CCC(=O)N[C@@H](CCC(=O)N[C@@H](CCC(=O)NCCOCCOCC(=O)NCCOCCOCC(=O)NCCOCCOCC(=O)NCCCC[C@H](NC(=O)[C@H](CCCCNC(C)=O)NC(=O)[C@H](CCCCN)NC(=O)[C@H](CCCNC(=N)N)NC(=O)C(C)(C)NC(=O)[C@H](CO)NC(=O)[C@H](Cc1c[nH]c2ccccc12)NC(=O)[C@@H](NC(=O)[C@H](CO)NC(=O)[C@H](CCCC)NC(=O)CNC(=O)[C@H](CCC(=O)O)NC(=O)C(C)(C)NC(=O)C(C)(C)NC(=O)[C@@H](NC(=O)[C@H](CCCCNC(C)=O)NC(=O)[C@H](C)NC(=O)[C@H](CCCNC(=N)N)NC(=O)[C@@H](NC(=O)[C@H](CCCCN)NC(=O)[C@H](CCC(=O)O)NC(=O)[C@H](CCCNC(=N)N)NC(=O)CNC(=O)[C@H](CCC(=O)O)NC(=O)[C@H](CC(C)C)NC(C)=O)C(C)C)[C@@H](C)CC)[C@@H](C)O)C(N)=O)C(=O)O)C(=O)O)C(=O)O [SA10SC-RLX] (Ac-LEGREKVRAK(Ac)I[Aib][Aib]EG[Nle]STWS[Aib]RKK(Ac)K([AEEA-AEEA-AEEA-γGlu-γGlu-γGlu-Stearoyl])-NH2) | –
– | – | – | 95.6 ± 0.8% | 1.4 nM | 100.1 ± 0.7% | 96.2 ± 0.8% | relaxin | 4 to 6 h
